{"source": "patent US11440883B2", "about": "“Heterocyclic compound and use thereof” (Takeda Pharmaceutical Company Limited, priority 2017, dated 2022)", "key": {"cynomolgus monkeys": {"system": "cynomolgus monkeys", "experiment": "Evaluation of wake-promoting effects in cynomolgus monkeys (EEG/EMG/EOG)", "assay_type": "in vivo, cynomolgus monkey", "details": "Macaca fascicularis, sc, at ZT12, time spent in wakefulness for 4 h after administration, male cynomolgus monkeys, read-out: Wakefulness time (% of vehicle treatment) (Mean, n = 1-2)"}, "[1]": {"biological_target": "T1, human orexin type 2 receptor (Homo sapiens, UniProt O43614)", "T1 construct": "expressed in transfected cells", "T1 sequence (O43614 1-444)": "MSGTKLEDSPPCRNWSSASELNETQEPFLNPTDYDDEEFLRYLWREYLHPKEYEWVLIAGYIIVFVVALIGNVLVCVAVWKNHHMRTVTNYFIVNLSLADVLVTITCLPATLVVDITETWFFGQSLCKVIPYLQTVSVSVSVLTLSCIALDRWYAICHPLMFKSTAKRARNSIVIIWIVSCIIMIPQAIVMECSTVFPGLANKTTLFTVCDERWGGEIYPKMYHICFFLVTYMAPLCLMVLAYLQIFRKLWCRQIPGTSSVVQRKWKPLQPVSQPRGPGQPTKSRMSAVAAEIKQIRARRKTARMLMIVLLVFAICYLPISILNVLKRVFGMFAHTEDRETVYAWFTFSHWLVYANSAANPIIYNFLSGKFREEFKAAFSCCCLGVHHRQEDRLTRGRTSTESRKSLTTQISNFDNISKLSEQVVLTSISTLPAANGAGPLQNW", "experiment": "Measurement of orexin type 2 receptor agonist activity (Fluo-4 calcium fluorescence, FDSS)", "assay_type": "cell-based", "details": "3 μM test compound; CHO cells expressing human OX2 receptor; DMSO = 0%, orexin A (human) = 100%", "text": "To obtain a cell clone stably expressing human orexin type 2 receptor, human orexin type 2 receptor cDNA was inserted into pcDNA3.1(+) plasmid vector (Invitrogen), and a plasmid DNA for expression of human orexin type 2 receptor (pcDNA3.1(+)/hOX2R) was cloned. The plasmid DNA was introduced into CHO-dhfr cell by an electroporation method, and human orexin type 2 receptor expressing clone cells were obtained by limiting dilution method by using G418 drug resistance as a selection marker.\nCHO cells forcibly expressing human OX2 receptor were seeded in each well of 384 well black transparent bottom plate (BD Falcon) at 7,500 cells/well, and cultured for one day in a 5% CO2 incubator at 37° C. […] A test compound prepared by diluting with assay buffer B (HBSS, 20 mM HEPES, 0.1% BSA) was added at 10 μL/well, and the fluorescence value was measured by FDSSUCELL (Hamamatsu Photonics K.K.) every one sec for 1 min, and thereafter every two sec for 1 min 40 sec. The activity (%) of the test compound was calculated assuming that variation in the fluorescence value when DMSO was added instead of the test compound was 0%, and variation in the fluorescence value when orexin A (human) (PEPTIDE INSTITUTE, INC.) was added at the final concentration of 10 nM was 100%."}}, "data": [{"smiles": "CCS(=O)(=O)N[C@H]1CCN(C(=O)C(C)(C)O)[C@H]1Cc1cccc(-c2cccc(F)c2)c1F", "note": "[Example 482, N-((2S,3S)-2-((2,3′-difluorobiphenyl-3-yl)methyl)-1-(2-hydroxy-2-methylpropanoyl)pyrrolidin-3-yl)ethanesulfonamide]", "values": [{"measurement": "response vs control in vivo at 1 mg/kg", "setting": "cynomolgus monkeys", "result": 281, "unit": "%"}]}, {"smiles": "CC(C)(O)C(=O)N1CC[C@H](NS(C)(=O)=O)[C@@H]1Cc1cccc(-c2cc(F)cc(F)c2)c1F", "note": "[Example 483, N-((2S,3S)-1-(2-hydroxy-2-methylpropanoyl)-2-((2,3′,5′-trifluorobiphenyl-3-yl)methyl)pyrrolidin-3-yl)methanesulfonamide]", "values": [{"measurement": "response vs control in vivo at 1 mg/kg", "setting": "cynomolgus monkeys", "result": 359, "unit": "%"}]}, {"smiles": "CCNC(=O)N1CCC[C@H](NS(C)(=O)=O)[C@@H]1Cc1cccc(O[Si](C(C)C)(C(C)C)C(C)C)c1", "note": "(relative stereo) [Example 17, cis-N-ethyl-3-((methylsulfonyl)amino)-2-(3-((triisopropylsilyl)oxy)benzyl)piperidine-1-carboxamide]", "values": [{"measurement": "OX2R agonist activity (3 μM, %)", "setting": "[1]", "result": 29, "unit": "%"}]}, {"smiles": "CCS(=O)(=O)N[C@H]1CCN(C(=O)C(C)(C)O)[C@H]1Cc1cccc(-c2cc(F)cc(F)c2)c1F", "note": "[Example 484, N-((2S,3S)-1-(2-hydroxy-2-methylpropanoyl)-2-((2,3′,5′-trifluorobiphenyl-3-yl)methyl)pyrrolidin-3-yl)ethanesulfonamide]", "values": [{"measurement": "response vs control in vivo at 1 mg/kg", "setting": "cynomolgus monkeys", "result": 492, "unit": "%"}]}]}
